According to article PMC4920590, “GPR142 Controls Tryptophan-Induced Insulin and Incretin Hormone Secretion to Improve Glucose Metabolism” (PLoS ONE, 2016):
Like-named read-outs stand apart in the source and are kept apart here.

Tests used:
human GPR142 = target: T1, human GPR142 (Homo sapiens, UniProt Q7Z601); assay: IP-1 accumulation assay in HEK293 cells stably expressing human GPR142; type: cell-based; details: for EC50: IP-1 accumulation, 1 hour, read-out: HEK293-hGPR142 EC50; for HEK293-hGPR142 EC50 (Emax): activity call, tested 170 nM to 30 mM
T1 construct: expressed in transfected cells
T1 sequence (Q7Z601 1-374 isoform Q7Z601-2): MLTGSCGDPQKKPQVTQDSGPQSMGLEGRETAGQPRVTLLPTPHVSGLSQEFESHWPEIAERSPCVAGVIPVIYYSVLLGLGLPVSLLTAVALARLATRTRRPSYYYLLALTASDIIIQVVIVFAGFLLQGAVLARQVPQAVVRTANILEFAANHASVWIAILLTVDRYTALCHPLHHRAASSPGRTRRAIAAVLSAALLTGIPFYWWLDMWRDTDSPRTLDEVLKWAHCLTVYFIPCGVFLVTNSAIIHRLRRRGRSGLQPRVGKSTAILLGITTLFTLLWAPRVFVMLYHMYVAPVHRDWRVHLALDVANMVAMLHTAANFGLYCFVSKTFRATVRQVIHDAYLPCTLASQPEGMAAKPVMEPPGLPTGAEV
Experimental: (§1) HEK293 cells obtained from ATCC were used to generate cell lines stably expressing human GPR142 or mouse Gpr142 by transfecting cells with pcDNA3.1 expression vectors containing each cDNA. Cells expanded from single clones were maintained in DMEM containing 10% fetal bovine serum (FBS) and 800 μg/ml G418. Untransfected control HEK293 cells were maintained in DMEM containing 10% FBS. Cells were plated in 384 well plates at 5000 cells per well and allowed 18 hours for attachment. After addition of compounds, cells were incubated for 1 hour. IP-1 measurements were performed using an HTRF assay kit (Cisbio) according to manufacturer’s protocol using assay buffer containing 1 × HBSS (Hank’s Balanced Salt Solution, +Ca, +Mg), 0.1% bovine serum albumin (BSA), 50 mM LiCl and 20 mM HEPES (4-(2-hydroxyethyl)-1-piperazineethanesulfonic acid), pH 7.2. The reaction was stopped by addition of IP1-d2 followed by cryptate solution and the plates were incubated at 25°C for 1 hour. Fluorescence was read in an Envision instrument at 665 nm and 620 nm. The ratio of 665 nm/620 nm was calculated and converted to IP-1 levels using a standard curve method. The data was fit to 4-parameter fit logistics to determine EC50 values.

human pancreatic islets = assay: Insulin secretion in isolated human pancreatic islets; type: cell-based; details: 11 mM glucose, 1 hour, non-diabetic donor
From the text: Human pancreatic islets were purchased from Prodo Labs at the Scharp-Lacy Research Institute (Irvine, CA, www.prodolabs.com) through the Integrated Islet Distribution Program in accordance with internal review board (IRB) ethical guidelines for use of human tissue. Islets were isolated at Prodo Labs from human pancreata from listed cadaver organ donors that were refused for primary human pancreas transplantation or isolated islets transplantion into listed diabetic recipients. […] The next day day islets were incubated for 30 min in EBSS buffer containing 0.1% BSA and 3 mM glucose. […] Islets were cultured for 60 min at 37°C. The incubation was stopped by chilling the samples on ice. The culture media was removed and stored at -20°C until its insulin concentration was measured. Insulin was measured using a custom built immunoassay (Meso Scale Discovery).

mouse GPR142 = target: T2, mouse GPR142 (Mus musculus, UniProt Q7TQN9); assay: IP-1 accumulation assay in HEK293 cells stably expressing mouse Gpr142; type: cell-based
T2 sequence (Q7TQN9 67-365 limits assumed): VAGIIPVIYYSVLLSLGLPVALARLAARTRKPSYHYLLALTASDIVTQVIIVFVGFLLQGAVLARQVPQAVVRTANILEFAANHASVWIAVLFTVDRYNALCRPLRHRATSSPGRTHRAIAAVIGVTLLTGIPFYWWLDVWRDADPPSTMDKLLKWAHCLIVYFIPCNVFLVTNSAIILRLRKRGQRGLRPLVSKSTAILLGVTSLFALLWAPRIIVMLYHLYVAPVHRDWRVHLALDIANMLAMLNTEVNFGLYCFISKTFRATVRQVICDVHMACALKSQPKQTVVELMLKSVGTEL
Experimental: as §1

[1] = Plasma insulin and incretin hormone levels after oral dosing in mice; type: in vivo, mouse
Experimental: (§2) Mice were fasted overnight and allowed free access to water. […] Tail blood glucose levels were measured at indicated time points using handheld glucometers. For incretin hormone measurements, blood was collected via cardiac bleeds into EDTA-tubes containing DPP-4 inhibitor (Millipore) and protease inhibitor cocktail (Thermo Fisher). For insulin measurements during GTT, blood was collected from the tail.
Immunoassays were used to measure total GIP (Millipore, ELISA), total GLP-1, and insulin (Meso Scale Discovery). Enzymatic assays were used to measure TG, beta-hydroxybutarate (Sigma-Aldrich), and total cholesterol (Thermo Fisher). HDL-cholesterol was determined in the supernatant after removal of LDL/vLDL-cholesterol by a precipitation reagent (Sigma-Aldrich); non-HDL-cholesterol was determined by subtracting HDL from total cholesterol. Free fatty acids were measured by GC-MS.

murine pancreatic islets = assay: Insulin secretion in isolated murine pancreatic islets (WT and Gpr142 KO); type: cell-based, mouse; details: 11.1 mM glucose, 1 hour
Experimental: Secretion was stopped by refrigerating the plates at 4°C for 3 minutes. Supernatant was removed from the wells and assayed for insulin levels using the MA6000 Mouse/Rat Insulin Kit (Meso Scale Discovery).

[2] = Glucose tolerance test (IPGTT/OGTT) after oral dosing in mice; type: in vivo, mouse; details: p.o. 30 minutes before glucose 2 g/kg; OGTT 10 mg/kg diet-induced obese C57 mice, IPGTT 30 mg/kg
Experimental: as §2

[3] = 30 mg/kg p.o., normal C57 mice, fasted state and after oral glucose challenge
[4] = HEK293, relative efficacy normalized to maximal response of L-Tryptophan (100%), read-out: HEK293-hGPR142 Emax

N[C@@H](Cc1c[nH]c2ccc(O)cc12)C(=O)O [5-OH L-Tryptophan]
EC50 (human GPR142; 170 nM to 30 mM): 12 mM | HEK293-hGPR142 Emax (human GPR142; relative efficacy normalized to maximal response of L-Tryptophan (100%)): 34%

CCCc1c(C(=O)NCc2cncn2C)cnn1-c1ncc(C)c(-c2cccs2)n1 [Compound A, N-[(3-methylimidazol-4-yl)methyl]-1-[5-methyl-4-(2-thienyl)pyrimidin-2-yl]-5-propyl-pyrazole-4-carboxamide]
insulin secretion in human primary islets (human pancreatic islets): stimulated ex vivo insulin secretion | Emax (mouse GPR142; HEK293, relative efficacy normalized to maximal response of L-Tryptophan (100%), read-out: HEK293-mGPR142 Emax): 90% | EC50 (mouse GPR142; IP-1 accumulation, 1 hour, 0.17 nM to 30 μM, read-out: HEK293-mGPR142 EC50): 880 pM | plasma insulin during glucose tolerance test ([1]; 10 mg/kg p.o., diet-induced obese C57 mice, 15 minutes after glucose challenge): increase in plasma insulin | meal induced GIP, GLP-1, and insulin levels ([1]; 30 mg/kg p.o. 30 minutes prior to oral mixed meal challenge (Ensure-plus 10 mL/kg), C57 mice): additional stimulatory effects | effects on plasma hormones and glycemia in Gpr142 KO mice ([1]; 30 mg/kg p.o., KO mice): completely absent | plasma GIP level [1, 3]: significantly increased | plasma GLP-1 level [1, 3]: significantly increased | Emax (human GPR142; [4]): 90% | EC50 (human GPR142; 0.17 nM to 30 μM): 7.1e-06 mM | insulin secretion in WT murine islets (murine pancreatic islets): stimulated ex vivo insulin secretion | glucose excursion during OGTT and IPGTT [2]: robust suppression of glucose excursion

N[C@H](Cc1c[nH]c2ccccc12)C(=O)O [D-Tryptophan]
Emax (human GPR142; [4]): 29% | EC50 (human GPR142; 170 nM to 30 mM): 3.5 mM | significant activation of GPR142 signaling at concentrations below 10 mM (human GPR142; Table 1): None

NCC(=O)O [Glycine]
HEK293-hGPR142 EC50 (Emax) (human GPR142): Inactive

C[C@H](N)C(=O)O [L-Alanine]
HEK293-hGPR142 EC50 (Emax) (human GPR142): Inactive

N=C(N)NCCC[C@H](N)C(=O)O [L-Arginine]
Emax (human GPR142; HEK293, read-out: HEK293-hGPR142 Emax): 23% | EC50 (human GPR142; 170 nM to 30 mM): > 20 mM

NC(=O)C[C@H](N)C(=O)O [L-Asparagine]
HEK293-hGPR142 EC50 (Emax) (human GPR142): Inactive

N[C@@H](CC(=O)O)C(=O)O [L-Aspartic Acid]
Emax (human GPR142; [4]): 41% | EC50 (human GPR142; 170 nM to 30 mM): > 20 mM

N[C@@H](CS)C(=O)O [L-Cysteine]
HEK293-hGPR142 EC50 (Emax) (human GPR142): Inactive

N[C@@H](CCC(=O)O)C(=O)O [L-Glutamic Acid]
HEK293-hGPR142 EC50 (Emax) (human GPR142): Inactive

NC(=O)CC[C@H](N)C(=O)O [L-Glutamine]
HEK293-hGPR142 EC50 (Emax) (human GPR142): Inactive

N[C@@H](Cc1c[nH]cn1)C(=O)O [L-Histidine]
HEK293-hGPR142 EC50 (Emax) (human GPR142): Inactive

CC[C@H](C)[C@H](N)C(=O)O [L-Isoleucine]
HEK293-hGPR142 EC50 (Emax) (human GPR142): Inactive
